Patent publication US9688642B2, “Substituted pyrazines as GPR40 agonists” (Janssen Pharmaceutica NV, priority 2014, dated 2017)
pEC50: −log10 of the molar value. Several values for one entry are separate records, joined by “and”; a condition that tells them apart may be missing. Equal entries are not always repeated.

Legend:
rat GPR40 = rat GPR40 (Rattus norvegicus (Rat), UniProt Q8K3T4); test: GPR40 calcium flux assay, HEK293 cells stably expressing rat GPR40; assay type: cell-based; conditions: transfected HEK293 cells stably expressing rat GPR40; individual determinations listed; read-out: rGPR40 Ca2+ Assay EC50
Sequence of rat GPR40 (Q8K3T4 whole entry): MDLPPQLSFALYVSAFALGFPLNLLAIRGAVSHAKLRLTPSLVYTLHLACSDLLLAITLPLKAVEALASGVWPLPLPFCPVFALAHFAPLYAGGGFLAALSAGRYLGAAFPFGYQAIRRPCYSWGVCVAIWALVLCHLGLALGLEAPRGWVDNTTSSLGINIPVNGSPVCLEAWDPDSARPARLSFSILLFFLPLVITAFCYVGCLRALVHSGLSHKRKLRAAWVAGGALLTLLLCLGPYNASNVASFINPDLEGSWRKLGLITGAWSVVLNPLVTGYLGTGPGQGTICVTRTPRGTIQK
Procedure: (§1) Compounds were tested in a calcium flux assay using transfected HEK293 cells stably expressing either human GPR40 or rat GPR40. Human GPR40 expressing cells were cultured in DMEM-High Glucose media supplemented with 10% fetal bovine serum, 1×L-Glutamine, 1× Penicillin/Streptomycin and 500 μg/mL G418. Rat GPR40 expressing cells were cultured in DMEM-High Glucose media supplemented with 10% fetal bovine serum and 1 μg/mL puromycin. Cells were plated into poly-D-lysine coated 384-well plates and cultured overnight in a 37° C. humidified tissue culture incubator under 5% CO2/90% O2 atmosphere. On the day of the experiment, the culture media was replaced with assay buffer (HBSS, 20 mM HEPES, 0.1% BSA) and the cells incubated at 37° C. for 1 h. Calcium-sensitive fluorescent dye (Fluo 8 No-Wash Calcium Dye, ABD Bioquest) was then added and the cells incubated for another 30 min at 37° C. followed by 15 min at room temperature while protected from the light. The cell plate and a plate of diluted compounds of Formula (I) were loaded into a fluorescent plate reader that added compounds onto the cells while measuring the fluorescence intensity of each well. The plate reader recorded fluorescence intensity at 1 second intervals for 8 min and provided the data for analysis in an Excel format. EC50 values were calculated using Prism (GraphPad) software.

human GPR40 = human GPR40 (Homo sapiens (Human), UniProt O14842); test: GPR40 calcium flux assay, HEK293 cells stably expressing human GPR40; assay type: cell-based; conditions: transfected HEK293 cells stably expressing human GPR40; individual determinations listed; read-out: hGPR40 Ca2+ Assay EC50
Sequence of human GPR40 (O14842 whole entry): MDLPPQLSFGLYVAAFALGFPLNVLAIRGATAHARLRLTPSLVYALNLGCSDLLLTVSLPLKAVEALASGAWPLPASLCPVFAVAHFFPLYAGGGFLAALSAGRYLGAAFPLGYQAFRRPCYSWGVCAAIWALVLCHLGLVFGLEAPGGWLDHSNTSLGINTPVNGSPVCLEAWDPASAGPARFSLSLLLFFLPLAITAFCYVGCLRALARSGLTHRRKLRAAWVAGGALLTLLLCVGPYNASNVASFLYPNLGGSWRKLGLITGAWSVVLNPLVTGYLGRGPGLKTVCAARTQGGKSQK
Procedure: as §1

| SMILES | pEC50 (rat GPR40) | pEC50 (human GPR40) | EC50 (rat GPR40) | EC50 (human GPR40) |
| --- | --- | --- | --- | --- |
| COc1ccc(F)c(-c2ncc(COc3cccc([C@@H](CC(=O)O)C4CC4)c3)nc2CC(C)(C)C)c1 [Cpd 1, (3S)-3-cyclopropyl-3-[3-[[6-(2,2-dimethylpropyl)-5-(2-fluoro-5-methoxy-phenyl)pyrazin-2-yl]methoxy]phenyl]propanoic acid] | 7.41 and 7.60 | 8.70 |  |  |
| CCCCc1nc(COc2cccc([C@@H](CC(=O)O)C3CC3)c2)cnc1-c1cc(OC)ccc1F [Cpd 3, (3S)-3-[3-[[6-butyl-5-(2-fluoro-5-methoxy-phenyl)pyrazin-2-yl]methoxy]phenyl]-3-cyclopropyl-propanoic acid] | 7.48 and 7.59 | 8.52 and 8.70 |  |  |
| COc1ccc(F)c(-c2ncc(COc3cccc([C@@H](CC(=O)O)C4CC4)c3)nc2OCC(C)(C)C)c1 [Cpd 4, (3S)-3-cyclopropyl-3-[3-[[6-(2,2-dimethylpropoxy)-5-(2-fluoro-5-methoxy-phenyl)pyrazin-2-yl]methoxy]phenyl]propanoic acid] |  | 8.05 and 8.52 and 8.70 | 13 nM (2×) and 9 nM |  |
| COc1ccc(F)c(-c2ncc(COc3cccc([C@@H](CC(=O)O)C4CC4)c3)nc2CC(C)C)c1 [Cpd 5, (3S)-3-cyclopropyl-3-[3-[[5-(2-fluoro-5-methoxy-phenyl)-6-isobutyl-pyrazin-2-yl]methoxy]phenyl]propanoic acid] | 7.92 and 8.00 | 8.52 and 8.70 |  |  |
| COc1ccc(F)c(-c2ncc(COc3cccc([C@@H](CC(=O)O)C4CC4)c3)nc2N2CC3(CCC3)C2)c1 [Cpd 6, (3S)-3-[3-[(6-[2-azaspiro[3.3]heptan-2-yl]-5-(2-fluoro-5-methoxyphenyl)pyrazin-2-yl)methoxy]phenyl]-3-cyclopropylpropanoic acid] | 7.77 and 7.85 | 8.30 and 8.40 |  |  |
| COc1ccc(F)c(-c2ncc(COc3cccc([C@@H](CC(=O)O)C4CC4)c3)nc2OC2CCCCC2)c1 [Cpd 7, (3S)-3-[3-[[6-(cyclohexoxy)-5-(2-fluoro-5-methoxy-phenyl)pyrazin-2-yl]methoxy]phenyl]-3-cyclopropyl-propanoic acid] | 7.54 and 7.57 | 8.15 and 8.22 |  |  |
| COc1cc(-c2ncc(COc3cccc([C@@H](CC(=O)O)C4CC4)c3)nc2OC2CCCCC2)c(F)cn1 [Cpd 9, (3S)-3-[3-[[6-(cyclohexoxy)-5-(5-fluoro-2-methoxy-4-pyridyl)pyrazin-2-yl]methoxy]phenyl]-3-cyclopropyl-propanoic acid] | 7.70 and 7.80 | 8.15 |  |  |
| COc1ccc(F)c(-c2ncc(COc3cccc([C@@H](CC(=O)O)C4CC4)c3)nc2-c2cc(C)cc(C)c2)c1 [Cpd 10, (3S)-3-cyclopropyl-3-[3-[[6-(3,5-dimethylphenyl)-5-(2-fluoro-5-methoxy-phenyl)pyrazin-2-yl]methoxy]phenyl]propanoic acid] | 7.48 and 7.54 | 8.10 and 8.15 |  |  |
| COc1cc(-c2ncc(COc3cccc([C@@H](CC(=O)O)C4CC4)c3)nc2C=C(C)C)c(F)cn1 [Cpd 11, (3S)-3-cyclopropyl-3-[3-[[5-(5-fluoro-2-methoxy-4-pyridyl)-6-(2-methylprop-1-enyl)pyrazin-2-yl]methoxy]phenyl]propanoic acid] | 7.54 and 7.64 | 7.96 and 8.15 |  |  |
| COc1cc(-c2ncc(COc3cccc([C@@H](CC(=O)O)C4CC4)c3)nc2OCC(C)C)c(F)cn1 [Cpd 12, (3S)-3-cyclopropyl-3-[3-[[5-(5-fluoro-2-methoxy-4-pyridyl)-6-isobutoxy-pyrazin-2-yl]methoxy]phenyl]propanoic acid] | 7.62 and 7.68 | 7.96 and 8.10 |  |  |
| COc1ccc(F)c(-c2ncc(COc3cccc([C@@H](CC(=O)O)C4CC4)c3)nc2OCC(C)C)c1 [Cpd 14, (3S)-3-cyclopropyl-3-[3-[[5-(2-fluoro-5-methoxy-phenyl)-6-isobutoxy-pyrazin-2-yl]methoxy]phenyl]propanoic acid] | 7.80 and 7.49 and 7.51 and 7.68 and 7.74 |  |  | 10 nM (2×) and 9 nM |
| COc1cc(-c2ncc(COc3cccc([C@@H](CC(=O)O)C4CC4)c3)nc2C2=CCCC2(C)C)c(F)cn1 [Cpd 15, (3S)-3-cyclopropyl-3-[3-[[6-(5,5-dimethylcyclopenten-1-yl)-5-(5-fluoro-2-methoxy-4-pyridyl)pyrazin-2-yl]methoxy]phenyl]propanoic acid] | 7.68 and 7.82 | 7.82 and 8.15 |  |  |
| COc1cc(-c2ncc(COc3cccc([C@@H](CC(=O)O)C4CC4)c3)nc2OC2CCCC2)c(F)cn1 [Cpd 16, (3S)-3-[3-[[6-(cyclopentoxy)-5-(5-fluoro-2-methoxy-4-pyridyl)pyrazin-2-yl]methoxy]phenyl]-3-cyclopropyl-propanoic acid] | 7.42 and 7.44 | 7.96 and 8.00 |  |  |
| COc1ccc(F)c(-c2ncc(COc3cccc([C@@H](CC(=O)O)C4CC4)c3)nc2-c2ccccc2)c1 [Cpd 18, (3S)-3-cyclopropyl-3-[3-[[5-(2-fluoro-5-methoxy-phenyl)-6-phenyl-pyrazin-2-yl]methoxy]phenyl]propanoic acid] | 6.98 and 7.17 | 7.89 and 8.00 |  |  |
| COc1ccc(F)c(-c2ncc(COc3cccc([C@@H](CC(=O)O)C4CC4)c3)nc2OC2CCC2)c1 [Cpd 19, (3S)-3-[3-[[6-(cyclobutoxy)-5-(2-fluoro-5-methoxy-phenyl)pyrazin-2-yl]methoxy]phenyl]-3-cyclopropyl-propanoic acid] | 7.15 and 7.31 | 7.85 and 7.96 |  |  |
| COc1ccc(F)c(-c2ncc(COc3cccc([C@@H](CC(=O)O)C4CC4)c3)nc2-c2cccc(C)c2)c1 [Cpd 20, (3S)-3-cyclopropyl-3-[3-[[5-(2-fluoro-5-methoxy-phenyl)-6-(m-tolyl)pyrazin-2-yl]methoxy]phenyl]propanoic acid] | 7.05 and 7.11 | 7.82 and 7.96 |  |  |
| COc1ccc(F)c(-c2ncc(COc3cccc([C@@H](CC(=O)O)C4CC4)c3)nc2OCC2CC2)c1 [Cpd 21, (3S)-3-cyclopropyl-3-[3-[[6-(cyclopropylmethoxy)-5-(2-fluoro-5-methoxy-phenyl)pyrazin-2-yl]methoxy]phenyl]propanoic acid] | 7.19 and 7.24 | 7.77 and 7.92 |  |  |
| COc1ccc(F)c(-c2ncc(COc3cccc([C@@H](CC(=O)O)C4CC4)c3)nc2N2CCCCC2)c1 [Cpd 22, (3S)-3-cyclopropyl-3-[3-[[5-(2-fluoro-5-methoxy-phenyl)-6-(1-piperidyl)pyrazin-2-yl]methoxy]phenyl]propanoic acid] | 7.28 and 7.34 and 7.37 and 7.51 | 7.74 and 7.92 |  |  |
| COc1ccc(F)c(-c2ncc(COc3cccc([C@@H](CC(=O)O)C4CC4)c3)nc2-c2cccc(C(C)C)c2)c1 [Cpd 23, (3S)-3-cyclopropyl-3-[3-[[5-(2-fluoro-5-methoxy-phenyl)-6-(3-isopropylphenyl)pyrazin-2-yl]methoxy]phenyl]propanoic acid] | 7.24 and 7.30 | 7.64 and 7.85 |  |  |
| COc1ccc(F)c(-c2ncc(COc3cccc([C@@H](CC(=O)O)C4CC4)c3)nc2OC2CC(C)(C)CC(C)(C)C2)c1 [Cpd 24, (3S)-3-cyclopropyl-3-[3-[[5-(2-fluoro-5-methoxy-phenyl)-6-(3,3,5,5-tetramethylcyclohexoxy)pyrazin-2-yl]methoxy]phenyl]propanoic acid] | 6.73 and 6.75 and 6.74 | 7.62 and 7.80 and 7.40 |  |  |
| COc1ccc(F)c(-c2ncc(COc3cccc([C@@H](CC(=O)O)C4CC4)c3)nc2-c2ccc(C(C)C)cc2)c1 [Cpd 25, (3S)-3-cyclopropyl-3-[3-[[5-(2-fluoro-5-methoxy-phenyl)-6-(4-isopropylphenyl)pyrazin-2-yl]methoxy]phenyl]propanoic acid] | 7.35 and 7.40 | 7.64 and 7.74 |  |  |
| COc1ccc(F)c(-c2ncc(COc3cccc([C@@H](CC(=O)O)C4CC4)c3)nc2OC2CC(C)(C)OC(C)(C)C2)c1 [Cpd 26, (3S)-3-cyclopropyl-3-[3-[[5-(2-fluoro-5-methoxy-phenyl)-6-(2,2,6,6-tetramethyltetrahydropyran-4-yl)oxy-pyrazin-2-yl]methoxy]phenyl]propanoic acid] | 6.95 and 6.97 | 7.68 |  |  |
| COc1ccc(F)c(-c2ncc(COc3cccc([C@@H](CC(=O)O)C4CC4)c3)nc2OC2CCCCCC2)c1 [Cpd 27, (3S)-3-[3-[[6-(cycloheptoxy)-5-(2-fluoro-5-methoxy-phenyl)pyrazin-2-yl]methoxy]phenyl]-3-cyclopropyl-propanoic acid] | 7.32 and 7.47 | 7.55 and 7.68 |  |  |
| COc1cc(-c2ncc(COc3cccc([C@@H](CC(=O)O)C4CC4)c3)nc2-c2ccc(C)s2)c(F)cn1 [Cpd 28, (3S)-3-cyclopropyl-3-[3-[[5-(5-fluoro-2-methoxy-4-pyridyl)-6-(5-methyl-2-thienyl)pyrazin-2-yl]methoxy]phenyl]propanoic acid] | 7.24 and 7.27 | 7.59 and 7.64 |  |  |
| COc1ccc(F)c(-c2ncc(COc3cccc([C@@H](CC(=O)O)C4CC4)c3)nc2OC(C)C)c1 [Cpd 29, (3S)-3-cyclopropyl-3-[3-[[5-(2-fluoro-5-methoxy-phenyl)-6-isopropoxy-pyrazin-2-yl]methoxy]phenyl]propanoic acid] |  | 7.41 and 7.52 and 7.68 and 7.59 and 7.64 | 73 nM (2×) and 56 nM and 98 nM and 62 nM |  |
| COc1cc(-c2ncc(COc3cccc([C@@H](CC(=O)O)C4CC4)c3)nc2C2=CCCC2(C)C)ccn1 [Cpd 31, (3S)-3-cyclopropyl-3-[3-[[6-(5,5-dimethylcyclopenten-1-yl)-5-(2-methoxy-4-pyridyl)pyrazin-2-yl]methoxy]phenyl]propanoic acid] | 6.99 and 7.18 | 7.49 and 7.59 |  |  |
